In ChEMBL document CHEMBL4312022, “Design, synthesis, and biological evaluation of ligustrazine - betulin amino-acid/dipeptide derivatives as anti-tumor agents” (Eur J Med Chem, 2020):
The source made the active and inactive calls. No cut-off for these calls is given here.

What was measured:
HeLa = assay: Antiproliferative activity against human HeLa cells assessed as reduction in cell viability after 72 hrs by MTT assay; format: functional, cell-based
HepG2 [1] = assay: Antiproliferative activity against human HepG2 cells assessed as reduction in cell viability after 72 hrs by MTT assay; format: functional, cell-based; settings: HepG2, 72 h
BGC-823 = assay: Antiproliferative activity against human BGC823 cells assessed as reduction in cell viability after 72 hrs by MTT assay; format: functional, cell-based; settings: BGC-823, 72 h
HT-29 = assay: Antiproliferative activity against human HT-29 cells assessed as reduction in cell viability after 72 hrs by MTT assay; format: functional, cell-based; settings: HT-29, 72 h
MDCK = assay: Cytotoxicity against MDCK cells assessed as reduction in cell viability after 72 hrs by MTT assay; format: cell-based; settings: Canis lupus familiaris
[2] = Selectivity index, ratio of IC50 for MDCK cells to IC50 for human HepG2 cells
[3] = Toxicity in zebrafish embryos assessed as mortality rate at 4 uM after 72 hrs (reference value: 3.33 +/- 4.71%); set-up: species or system Danio rerio; settings: in vivo
[4] = Toxicity in zebrafish embryos assessed as malformation rate at 4 uM after 72 hrs (reference value: 0%); set-up: species or system Danio rerio; settings: in vivo
[5] = Toxicity in zebrafish embryos assessed as body length at 4 uM after 72 hrs (reference value: 4165.80 +/- 64.98 micrometer); set-up: species or system Danio rerio; settings: in vivo
[6] = Toxicity in zebrafish embryos assessed as effect on morphological changes at 4 uM after 72 hrs; set-up: species or system Danio rerio; settings: in vivo
[7] = Toxicity in zebrafish embryos assessed as spinal cord bending at 4 uM after 72 hrs; set-up: species or system Danio rerio; settings: in vivo
HepG2 [8] = assay: Induction of morphological changes in human HepG2 cells assessed as cell fragmentation at 8 uM after 72 hrs by giemsa staining based inverted microscopic analysis; format: functional
HepG2 [9] = assay: Induction of morphological changes in human HepG2 cells assessed as cell pyknosis at 8 uM after 72 hrs by giemsa staining based inverted microscopic analysis; format: functional
HepG2 [10] = assay: Induction of apoptosis in human HepG2 cells assessed as reduction in number of normal cell morphology at 2 to 8 uM after 72 hrs by giemsa staining based inverted microscopic analysis; format: functional
HepG2 [11] = assay: Induction of apoptosis in human HepG2 cells assessed as concentrated chromatin at 2 to 8 uM after 72 hrs by DAPI-staining based fluorescence microscopic analysis; format: functional, cell-based
HepG2 [12] = assay: Induction of apoptosis in human HepG2 cells assessed as nuclear fragmentation at 2 to 8 uM after 72 hrs by DAPI-staining based fluorescence microscopic analysis; format: functional, cell-based
HepG2 [13] = assay: Induction of apoptosis in human HepG2 cells assessed as reduction in number of cells up to 8 uM after 72 hrs by DAPI-staining based fluorescence microscopic analysis; format: functional, cell-based
HepG2 [14] = assay: Induction of apoptosis in human HepG2 cells assessed as increase in cell disruption up to 8 uM after 72 hrs by DAPI-staining based fluorescence microscopic analysis; format: functional
HepG2 [15] = assay: Induction of apoptosis in human HepG2 cells assessed as late apoptotic cells at 4 uM after 24 hrs by AnnexinV-FITC/PI-staining based flow cytometry (reference value: 4.5%); format: functional
HepG2 [16] = assay: Induction of apoptosis in human HepG2 cells assessed as early apoptotic cells at 4 uM after 24 hrs by AnnexinV-FITC/PI-staining based flow cytometry (reference value: 0.5%); format: functional
HepG2 [17] = assay: Induction of apoptosis in human HepG2 cells assessed as late apoptotic cells at 8 uM after 24 hrs by AnnexinV-FITC/PI-staining based flow cytometry (reference value: 4.5%); format: functional
HepG2 [18] = assay: Induction of apoptosis in human HepG2 cells assessed as early apoptotic cells at 8 uM after 24 hrs by AnnexinV-FITC/PI-staining based flow cytometry (reference value: 0.5%); format: functional
HepG2 [19] = assay: Induction of apoptosis in human HepG2 cells assessed as late apoptotic cells at 12 uM after 24 hrs by AnnexinV-FITC/PI-staining based flow cytometry (reference value: 4.5%); format: functional
HepG2 [20] = assay: Induction of apoptosis in human HepG2 cells assessed as early apoptotic cells at 12 uM after 24 hrs by AnnexinV-FITC/PI-staining based flow cytometry (reference value: 0.5%); format: functional
HepG2 [21] = assay: Induction of cell cycle arrest in human HepG2 cells assessed as accumulation at G1 phase at 2 uM after 72 hrs by PI-staining based flow cytometry (reference value: 66.9%); format: functional
HepG2 [22] = assay: Induction of cell cycle arrest in human HepG2 cells assessed as accumulation at G2 phase at 2 uM after 72 hrs by PI-staining based flow cytometry (reference value: 19.2%); format: functional
HepG2 [23] = assay: Induction of cell cycle arrest in human HepG2 cells assessed as accumulation at S phase at 2 uM after 72 hrs by PI-staining based flow cytometry (reference value: 13.9%); format: functional
HepG2 [24] = assay: Induction of cell cycle arrest in human HepG2 cells assessed as accumulation at G1 phase at 4 uM after 72 hrs by PI-staining based flow cytometry (reference value: 66.9%); format: functional
HepG2 [25] = assay: Induction of cell cycle arrest in human HepG2 cells assessed as accumulation at G2 phase at 4 uM after 72 hrs by PI-staining based flow cytometry (reference value: 19.2%); format: functional
HepG2 [26] = assay: Induction of cell cycle arrest in human HepG2 cells assessed as accumulation at S phase at 4 uM after 72 hrs by PI-staining based flow cytometry (reference value: 13.9%); format: functional
HepG2 [27] = assay: Induction of cell cycle arrest in human HepG2 cells assessed as accumulation at G1 phase at 8 uM after 72 hrs by PI-staining based flow cytometry (reference value: 66.9%); format: functional
HepG2 [28] = assay: Induction of cell cycle arrest in human HepG2 cells assessed as accumulation at G2 phase at 8 uM after 72 hrs by PI-staining based flow cytometry (reference value: 19.2%); format: functional
HepG2 [29] = assay: Induction of cell cycle arrest in human HepG2 cells assessed as accumulation at S phase at 8 uM after 72 hrs by PI-staining based flow cytometry (reference value: 13.9%); format: functional

## C=C(C)[C@@H]1CC[C@]2(COC(=O)c3nc(C)c(C)nc3C)CC[C@]3(C)[C@H](CC[C@@H]4[C@@]5(C)CC[C@H](OC(=O)CN)C(C)(C)[C@@H]5CC[C@]43C)[C@@H]12
HeLa
  IC50: 4.91 µM
HepG2 [1]
  IC50: 4.07 µM
BGC-823
  IC50: 4.24 µM
HT-29
  IC50: 6.21 µM
MDCK
  IC50: 16.1 µM
[2]
  Ratio IC50: 3.91
[3]
  mortality at 72 h, 4 µM: 8.33%
[4]
  Activity: 0%
[5]
  Activity: 4140.09 um
[6]
  Activity: Non-Toxic
[7]
  Activity: Non-Toxic
HepG2 [8]
  Activity: Active
HepG2 [9]
  Activity: Active
HepG2 [10]
  Activity: Active
HepG2 [11]
  Activity: Active
HepG2 [12]
  Activity: Active
HepG2 [13]
  Activity: Active
HepG2 [14]
  Activity: Active
HepG2 [15]
  Activity: 15.4%
HepG2 [16]
  Activity: 5.5%
HepG2 [17]
  Activity: 19.2%
HepG2 [18]
  Activity: 14.2%
HepG2 [19]
  Activity: 21.4%
HepG2 [20]
  Activity: 35.4%
HepG2 [21]
  Activity: 76.8%
HepG2 [22]
  Activity: 15.8%
HepG2 [23]
  Activity: 7.3%
HepG2 [24]
  Activity: 79.6%
HepG2 [25]
  Activity: 14.9%
HepG2 [26]
  Activity: 5.6%
HepG2 [27]
  Activity: 81.5%
HepG2 [28]
  Activity: 13.6%
HepG2 [29]
  Activity: 4.9%
